Data set [1] relates to MCF7-Y537S human breast cancer cell line xenograft. In words: Anti-tumor efficacy against subcutaneous MCF7-Y537S human breast cancer cell line xenograft in female nude mice. The class given is in vivo. Also noted: key to Biological Interpretation: Active: ΔT/ΔC≤40% is considered as therapeutically active; Very active: ΔT/ΔC<0% is considered as tumor regression (very active); Inactive: ΔT/ΔC>40% is considered as therapeutically inactive. To be noted: for Tumor volume changes from baseline: Median: compound (1) 5 mg/kg BID, palbociclib 100 mg/kg QD, PO; for Biological Interpretation: based on ΔT/ΔC at day 51; for Biological Interpretation / ΔT/ΔC in % at day 51 / Regressions Complete / Regressions Partial: compound (1) 5 mg/kg PO BID, palbociclib 100 mg/kg PO QD; for ΔT/ΔC in % at day 51: days 22 to 51; for Regressions Complete: mice with complete regression/evaluable mice; for Regressions Complete / Regressions Partial: 30 days; for Regressions Partial: mice with partial regression/evaluable mice. The procedure: In the present study, the anti-tumor efficacy of 6-(2,4-dichlorophenyl)-5-[4-[(3S)-1-(3-fluoropropyl)pyrrolidin-3-yl]oxyphenyl]-8,9-dihydro-7H-benzo[7]annulene-2-carboxylic acid (“compound (1)”), combined with the cyclin-dependent kinase 4 (CDK4) inhibitor palbociclib, was investigated after 30 days treatment against a subcutaneous MCF7-Y537S human breast cancer cell line xenograft in female nude mice.
The treated groups included compound (1) at 5 mg/kg alone, palbociclib at 100 mg/kg alone, and the combination of compound (1) and palbociclib at the same dose and regime.
Compound (1) was orally dosed twice a day (BID) and palbociclib was orally dosed once a day (QD) for 30 days. Anti-tumor efficacy was evaluated by tumor volume measurement.
Female athymic nude mice were obtained from Harlan (Indianapolis, Ind., USA). Animals were allowed to acclimate for at least four days before the study enrollment. Mice were 12 to 13 weeks old and weighed between 20.2 and 27.3 grams at the beginning of the treatments. These animals were housed under conditions outlined in the NIH Guide for Care and Use of Laboratory Animals in compliance with the USDA Laboratory Animal Welfare Act.
Parental MCF7 cells were obtained from the American Type Culture Collection (ATCC® HTB-22™). MCF7-Y537S (ESR1) cell line was MCF7 cells expressing the ER.Y537S variant that was generated by Sanofi Biology Discovery Group. Y537S mutation was introduced in ESR1 construct (GenBank NM_000125.3) by site directed mutagenesis (Toy W. et al., Cancer Discovery, 2017, 7, 277-287). The construct was transfected in MCF7 cells which were selected for their growth in absence of estradiol. MCF-Y537S is an ESR1 mutation that confers estrogen-independent activity to ERα (Estrogen Receptor alpha) and contributes to endocrine resistant disease (Robinson D. R. et al., Nat Genet., 2013, 45 (12), 1446-1451). The cells were grown in Eagle's Minimum Essential Medium (EMEM) supplemented with 10% fetal bovine serum (FBS), human Insulin, in 5% CO2 at 37° C. The cells were harvested in 0.25% Trypsin EDTA and washed by Dulbecco's Phosphate Buffered Saline (DPBS) and re-suspended in DPBS with 50% matrigel (Becton Dickinson catalog No. 356234, lot No. 32277). The cells (20×10^6 cells/per mouse) were subcutaneously (SC) implanted into the right flank of female nude mice.
When the MCF7-Y537S tumors were established, the tumors were reserved as tumor stocks for fragment implantation. The tumors were serially propagated through fragment tissue transplantation subcutaneously. The fragment tumor tissues were subcutaneously implanted into the right flank of female nude mice. 50 mice were assigned in this experiment.
Compound (1) and palbociclib (commercially available, marketed under the tradename Ibrance®) were formulated as follows: […]
Compound (1) was prepared in Vehicle A, then Solutol HS15 (purchased from Sigma) was added to the final concentration 5%, and the solution was left under stirring for an hour for complete dissolution. After that, vehicle B was added. The final pH was 5.5.
Palbociclib was prepared in Vehicle A, then Solutol HS15 was added to the final concentration 5%, and the solution was left under stirring for an hour for complete dissolution. After that, vehicle B was added. The final pH was 5.5.
The animals required for experiment (plus extra) were pooled and implanted with MCF7-Y537S tumor fragment tissues on day 0. On day 21 post implantation, the mice were pooled and randomly distributed to the treatment and control groups (10 mice per group), where median tumor volumes for each group ranged from 202.5 to 211.5 mm^3. Treatments of compound (1) and palbociclib were initiated on day 22. Compound (1) was orally administered at 5 mg/kg BID (at least 5 hours apart) and palbociclib was orally administered at 100 mg/kg QD, for 30 days. Animal body weight was assessed daily.
The dosages are expressed in mg/kg and based on daily body weight per animal. Vehicle treated animals were used as controls. […]
On the technique in general: Xenograft models place foreign cells or tissue in a host animal.

Data set [2] is described as follows: Tolerability (body weight change, deaths) in the MCF7-Y537S xenograft study in nude mice. The class given is in vivo. To be noted: compound (1) 5 mg/kg PO BID, palbociclib 100 mg/kg PO QD; for Average body weight change in % per group at nadir: days 22 to 51 (30 days); for day of nadir (of average body weight change): day post implantation, days 22 to 51; for Unscheduled death (Day of death): dead/total mice, footnote: non-drug related death or terminations, 30 days. The procedure: The animals required for experiment (plus extra) were pooled and implanted with MCF7-Y537S tumor fragment tissues on day 0. […] Animal body weight was assessed daily.
The dosages are expressed in mg/kg and based on daily body weight per animal. Vehicle treated animals were used as controls. Mice were checked daily and adverse clinical reactions noted. Individual mice were weighed daily until the end of the experiment. Mice would be euthanized when morbid or weight loss ≥20% was observed. Tumors were measured with a caliper twice weekly until final sacrifice. When a tumor size reached approximately 2000 mm^3 or when there are animal health issues (40% area of a tumor ulcerated), animals would be euthanized and date of death recorded. Solid tumor volumes were estimated from two dimensional tumor measurements and calculated according to the following equation: […]
Animal body weight included the tumor weight.

As to `O=C(O)c1ccc2c(c1)CCCC(c1ccc(Cl)cc1Cl)=C2c1ccc(O[C@H]2CCN(CCCF)C2)cc1` [Compound (1), 6-(2,4-dichlorophenyl)-5-[4-[(3S)-1-(3-fluoropropyl)pyrrolidin-3-yl]oxyphenyl]-8,9-dihydro-7H-benzo[7]annulene-2-carboxylic acid], the “Tumor volume changes from baseline: Median” value (“Tumor volume changes” below) in data set [1] (Day 27) was 114.0 mm^3; in data set [1] (Day 30), 171.5 mm^3; in data set [1] (Day 34), 270.5 mm^3; in data set [1] (Day 37), 336.0 mm^3; in data set [1] (Day 41) it was 440.0 mm^3; in data set [1] (Day 44) it was 498.5 mm^3. Moreover, the “Tumor volume changes” value in data set [1] (Day 49) amounted to 727.5 mm^3; in data set [1] (Day 51) it was 782.0 mm^3. Further, the “Biological Interpretation” value in data set [1] is given as “Inactive”. Besides, in data set [1], the “ΔT/ΔC in % at day 51” value is listed as 59%. Moreover, the “Regressions Complete” value in data set [1] is given as 0/8. Further, the “Regressions Partial” value in data set [1] is listed as 0/8. Further, the “Average body weight change in % per group at nadir” value in data set [2] is recorded as −1.7%. Also, in data set [2], the “day of nadir (of average body weight change)” value is 22. In data set [2], the “Unscheduled death (Day of death)” value is given as 2/10.
`CC(=O)c1c(C)c2cnc(Nc3ccc(N4CCNCC4)cn3)nc2n(C2CCCC2)c1=O` [Palbociclib, 6-acetyl-8-cyclopentyl-5-methyl-2-[5-(1-piperazinyl)pyridine-2-ylamino]pyrido[2,3-d]pyrimidin-7(8H)-one]: the “Tumor volume changes” value in data set [1] (Day 27) came out at 68.5 mm^3; in data set [1] (Day 30), 98.0 mm^3; in data set [1] (Day 34), 121.5 mm^3; in data set [1] (Day 37), 132.0 mm^3; in data set [1] (Day 41) it was 193.5 mm^3; in data set [1] (Day 44), 249.5 mm^3. The “Tumor volume changes” value in data set [1] (Day 49) came to 298.5 mm^3; in data set [1] (Day 51), 363.5 mm^3. For the same compound, the “Biological Interpretation” value in data set [1] is “Active”. Further, the “ΔT/ΔC in % at day 51” value in data set [1] is 27%. Moreover, in data set [1], the “Regressions Complete” value is reported as 0/10. Besides, the “Regressions Partial” value in data set [1] is given as 0/10. In addition, the “Average body weight change in % per group at nadir” value in data set [2] was −2.0%. Further, in data set [2], the “day of nadir (of average body weight change)” value came to 22. For the same compound, the “Unscheduled death (Day of death)” value in data set [2] is 0/10.

For the origin of these results see patent US11260057B2, “Combination comprising palbociclib and 6-(2,4-dichlorophenyl)-5-[4-[(3S)-1-(3-fluoropropyl)pyrrolidin-3-yl]oxyphenyl]-8,9-dihydro-7H-benzo[7] annulene-2-carboxylic acid and its use for the treatment of cancer” (SANOFI, priority 2017, dated 2022).
